{"source": "patent US20210177805A1", "about": "(Ovid Therapeutics Inc., priority 2018, published 2021)", "key": {"[1]": {"system": "subjects with Angelman syndrome", "assay": "Sleep diary in patients with Angelman syndrome", "type": "in vivo, human", "details": "for 6-week LS Mean difference, total sleep time at night / 12-week LS Mean difference, total sleep time at night: change from baseline", "description": "The most notable change from patient sleep diaries was in the number of nights slept independently. In the QD dose cohort, one quarter of patients slept every night with parents, at 12 weeks, this had improved to only 1 in 5 nights; in the placebo group, the most effected quarter slept 3 of 4 nights with parents, which had improved to 2 of 4 nights at 12 weeks (P<0.001, Chi Square). The observed and change from baseline in total hours of sleep time at night (assessed from subject Sleep Diary) is provided in Table III."}, "[2]": {"system": "subjects with Angelman syndrome", "assay": "Efficacy in patients with Angelman syndrome, Clinical Global Impressions (CGI-S, CGI-I)", "type": "in vivo, human", "description": "CGI-S scale assessed all sub-domains of Angelman syndrome (gross and fine motor ability, sleep, and adaptive behavior) plus globally by the investigator. […] The Clinical Global Impressions-Improvement (CGI-I) scale was used to assess all sub-domains of Angelman syndrome (gross and fine motor ability, sleep, and adaptive behavior) plus globally by the investigator and caregiver. CGI-I is a 7-point scale in which the investigator rates the improvement or worsening of symptoms compared to baseline.\nMoreover, the percentage who were very much improved on CGI-I in the QD group vs placebo went from 20% (vs. 11%) to 27% (vs. 9%) to 33% (vs. 0%) progressing from the oldest to youngest cohorts."}, "[3]": {"system": "subjects with Angelman syndrome", "assay": "Treatment-related and treatment-emergent adverse events in patients with Angelman syndrome", "procedure": "This multicenter, randomized, parallel (3-arm), double-blind, placebo-controlled trial enrolled 88 patients including adults (n=66) and adolescents (n=22) aged 13 to 49 years of age, diagnosed with Angelman syndrome. […] The dosing schedules that were assessed against placebo were once daily (QD): An evening dose titrated to the target dose of 15 mg unless not tolerated; and twice daily (BID): Evening and morning doses titrated to the target doses of 15 mg evening dose and 10 mg morning dose unless not tolerated.\nGastrointestinal adverse events may be considered fundamental to the behavioral disturbances seen in autistic spectrum disorders, such as autism and Angelman syndrome."}, "[4]": {"details": "human, in vivo", "procedure": "Each subject was expected to complete all 6 treatment periods and there was a washout of at least 4 days between each treatment period.\nEach oral dosing within Treatment Periods consisted of 2 capsules of test drug taken simultaneously at each scheduled dosing. […] Subjects received their study drug after an overnight fast with 240 mL of water in the morning about 8:00 AM. Water was permitted ad libitum except within 1 hour prior to and after study drug administration. No food was allowed for 4 hours post dose."}}, "data": [{"smiles": "Oc1noc2c1CCNC2", "note": "[gaboxadol, 4,5,6,7-tetrahydroisoxazolo [5,4-c]pyridine-3-ol]", "values": [{"measurement": "6-week LS Mean sleep time (total sleep time at night, Sleep Diary)", "setting": "[1]; BID dosing (N = 29)", "value": "8.95 (1.1) hours"}, {"measurement": "12-week LS Mean sleep time (total sleep time at night, Sleep Diary)", "setting": "[1]; BID dosing (N = 29)", "value": "8.84 (1.1) hours"}, {"measurement": "6-week LS Mean difference, total sleep time at night", "setting": "[1]; BID dosing", "value": "0.30 (1.1) hours"}, {"measurement": "12-week LS Mean difference, total sleep time at night", "setting": "[1]; BID dosing", "value": "0.18 (0.97) hours"}, {"measurement": "6-week LS Mean sleep time (total sleep time at night, Sleep Diary)", "setting": "[1]; Combined (N = 58)", "value": "8.93 (1.3) hours"}, {"measurement": "12-week LS Mean sleep time (total sleep time at night, Sleep Diary)", "setting": "[1]; Combined (N = 58)", "value": "8.80 (1.1) hours"}, {"measurement": "6-week LS Mean difference, total sleep time at night", "setting": "[1]; Combined", "value": "0.22 (0.94) hours"}, {"measurement": "12-week LS Mean difference, total sleep time at night", "setting": "[1]; Combined", "value": "0.07 (1.0) hours"}, {"measurement": "6-week LS Mean sleep time (total sleep time at night, Sleep Diary)", "setting": "[1]; QD dosing (N = 29)", "value": "8.91 (1.5) hours"}, {"measurement": "12-week LS Mean sleep time (total sleep time at night, Sleep Diary)", "setting": "[1]; QD dosing (N = 29)", "value": "8.76 (1.2) hours"}, {"measurement": "6-week LS Mean difference, total sleep time at night", "setting": "[1]; QD dosing", "value": "0.14 (0.81) hours"}, {"measurement": "12-week LS Mean difference, total sleep time at night", "setting": "[1]; QD dosing", "value": "−0.04 (1.1) hours"}, {"measurement": "CGI-I", "setting": "[2]; QD 15 mg evening dose, 7-point scale, vs. 3.8 placebo, p=0.0006", "value": 3.0}, {"measurement": "CGI-I 12-week LS Mean", "setting": "[2]; QD dosing (N = 29), clinician assessed, MMRM", "value": "3.00 (0.16)"}, {"measurement": "Abdominal Pain upper, subjects (%)", "setting": "[3]; BID dosing (N = 29)", "value": 0}, {"measurement": "At least 1 Adverse Event, subjects (%)", "setting": "[3]; BID dosing (N = 29)", "value": "19 (66%)^"}, {"measurement": "Diarrhea, subjects (%)", "setting": "[3]; BID dosing (N = 29)", "value": "1 (3.4%)"}, {"measurement": "Gastrointestinal disorders, subjects (%)", "setting": "[3]; BID dosing (N = 29)", "value": "4 (13.8%)"}, {"measurement": "Nausea, subjects (%)", "setting": "[3]; BID dosing (N = 29)", "value": "2 (6.9%)"}, {"measurement": "Retching, subjects (%)", "setting": "[3]; BID dosing (N = 29)", "value": "1 (3.4%)"}, {"measurement": "Vomiting, subjects (%)", "setting": "[3]; BID dosing (N = 29)", "value": "1 (3.4%)"}, {"measurement": "Abdominal Pain upper, subjects (%)", "setting": "[3]; Combined (N = 58)", "value": 0}, {"measurement": "At least 1 Adverse Event, subjects (%)", "setting": "[3]; Combined (N = 58)", "value": "37 (64%)^"}, {"measurement": "Diarrhea, subjects (%)", "setting": "[3]; Combined (N = 58)", "value": "1 (1.7%)"}, {"measurement": "Gastrointestinal disorders, subjects (%)", "setting": "[3]; Combined (N = 58)", "value": "4 (6.9%)"}, {"measurement": "Nausea, subjects (%)", "setting": "[3]; Combined (N = 58)", "value": "2 (3.4%)"}, {"measurement": "Retching, subjects (%)", "setting": "[3]; Combined (N = 58)", "value": "1 (1.7%)"}, {"measurement": "Vomiting, subjects (%)", "setting": "[3]; Combined (N = 58)", "value": "1 (1.7%)"}, {"measurement": "Abdominal Pain upper, subjects (%)", "setting": "[3]; QD dosing (N = 29)", "value": 0}, {"measurement": "At least 1 Adverse Event, subjects (%)", "setting": "[3]; QD dosing (N = 29)", "value": "18 (62%)"}, {"measurement": "Diarrhea, subjects (%)", "setting": "[3]; QD dosing (N = 29)", "value": 0}, {"measurement": "Gastrointestinal disorders, subjects (%)", "setting": "[3]; QD dosing (N = 29)", "value": 0}, {"measurement": "Nausea, subjects (%)", "setting": "[3]; QD dosing (N = 29)", "value": 0}, {"measurement": "Retching, subjects (%)", "setting": "[3]; QD dosing (N = 29)", "value": 0}, {"measurement": "Vomiting, subjects (%)", "setting": "[3]; QD dosing (N = 29)", "value": 0}, {"measurement": "CL (CL/F row, footnote for 10 mg IV)", "setting": "[4]; iv, 10 mg", "value": 438, "unit": "mL/min"}, {"measurement": "AUC0-∞ Slope (90% CI), dose proportionality assessment", "setting": "[4]; po", "value": "0.98 (0.95, 1.01)"}]}]}
